Data: patent US20240325398A1, “COMBINATION THERAPIES” (Infinity Pharmaceuticals, Inc., priority 2014, published 2024)

Assays:
NCI-H929 = experiment: Combination study, ATPLite 72 h, dose matrix (Synergy Score, CI50); conditions: combination with Compound 1
RPMI-8226 = experiment: as above; conditions: combination with Compound 1
HH = experiment: as above; format: cell-based; conditions: combination with Compound 1
Method: The method is described as follows.
Additive effect is CI=1.0. […] Antagonistic effect is CI>1.0.
The Synergy Score is calculated as: […]

GRANTA-519 = experiment: as above; conditions: combination with Compound 1
DOHH-2 = experiment: as above; conditions: combination with Compound 1, 72 h
Jeko-1 = experiment: as above; conditions: combination with Compound 1
OMP-2 = experiment: as above; conditions: combination with Compound 1; OPM-2
Method: (§1) Cells are thawed from a liquid nitrogen preserved state. Once cells have been expanded and divide at their expected doubling times, screening begins. Cells are seeded in growth media in either black 1536-well or 384-well tissue culture treated plates. Cells are then equilibrated in assay plates via centrifugation and placed in incubators attached to the Dosing Modules at 37° C. for 24 hours before treatment. […] These Tzero (To) plates are read using ultra-sensitive luminescence on Envision plate readers (Perkin Elmer). Treated assay plates are incubated with compound for 72 hours. After 72 hours, plates are developed for endpoint analysis using ATPLite. All data points are collected via automated processes, quality controlled and analyzed using Zalicus software.
(§2) where T is treated cell count and V is untreated (vehicle) cell count (at 72 hours). I ranges from 0% (when T=V) to 100% (when T=0). […] The measure of effect in the experiment can be the inhibition of cellular response relative to the untreated level (vehicle alone). […] The inhibition ranges from 0% at the untreated level to 100% when T=0. Inhibition levels are negative for agents that actually increase levels. Other effect measures, such as an activity ratio r=T/V may be more appropriate for some assays. When activity ratios (e.g, fold increase over stimulated control) are being used, the effect can be measured using an induction 1=ln(T/V). With this definition, all effect expressions are the same as for inhibition.
(§3) Growth Inhibition (GI) is used as a measure of cell viability. […] A GI reading of 100% represents complete growth inhibition—T72 compound-treated and T0 vehicle signals are matched. […] A GI reading of 200% represents complete death of all cells in the culture well. Compounds reaching an activity plateau of GI 200% are considered cytotoxic. GI is calculated by applying the following test and equation:
(§4) Combination analysis data were collected in a 6×6 dose matrix. Synergy is calculated by comparing a combination's response to those of its single compound, against the drug-with-itself dose-additive reference model. Deviations from dose additivity may be assessed visually on an isobologram or numerically with a Combination Index (CI). […] Additive effect is CI=1.0. […] Antagonistic effect is CI>1.0.
(§5) To measure combination effects in excess of Loewe additivity, a scalar measure to characterize the strength of synergistic interaction termed the Synergy Score is devised. The Synergy Score is calculated as:
(§6) The fractional inhibition for each component agent and combination point in the matrix is calculated relative to the median of all vehicle-treated control wells. The Synergy Score equation integrates the experimentally-observed activity volume at each point in the matrix in excess of a model surface numerically derived from the activity of the component agents using the Loewe model for additivity. Additional terms in the Synergy Score equation (above) are used to normalize for various dilution factors used for individual agents and to allow for comparison of synergy scores across an entire experiment. The inclusion of positive inhibition gating or an Idata multiplier removes noise near the zero effect level, and biases results for synergistic interactions at that occur at high activity levels.
(§7) Loewe Volume (Loewe Vol) is used to assess the overall magnitude of the combination interaction in excess of the Loewe additivity model. Loewe Volume is particularly useful when distinguishing synergistic increases in a phenotypic activity (positive Loewe Volume) versus synergistic antagonisms (negative Loewe Volume). […] This model defines additivity as a non-synergistic combination interaction where the combination dose matrix surface should be indistinguishable from either drug crossed with itself.

[1] = as above; conditions: combination with Compound 1; OPM-2
Method: as §1, §2, §3, §4, §5, §6, §7

OCI-Ly7 = experiment: as above; conditions: combination with Compound 1, 72 h
WSU-NHL = experiment: as above; conditions: combination with Compound 1, 72 h
Method: as §1, §2, §3, §4, §5, §6, §7

HBL-1 = experiment: as above; conditions: combination with Compound 1, 72 h
Mino = experiment: as above; conditions: combination with Compound 1
KARPAS-422 = experiment: as above; conditions: combination with Compound 1, 72 h
Method: as §1, §2, §3, §4, §5, §6, §7

OCI-Ly3 = experiment: as above; conditions: combination with Compound 1; OCI-Ly3; 72 h
TMD8 = experiment: as above; conditions: combination with Compound 1
U-2932 = experiment: as above; conditions: combination with Compound 1, 72 h
Farage = experiment: as above; conditions: combination with Compound 1
KARPAS-299 = experiment: as above; conditions: combination with Compound 1
Method: as §1, §2, §3, §4, §5, §6, §7

SU-DHL-10-epst = experiment: as above; conditions: combination with Compound 1, 72 h
SU-DHL-4-epst = experiment: as above; conditions: combination with Compound 1, 72 h
RL = experiment: as above; conditions: combination with Compound 1, 72 h

CO[C@H]1C[C@@H]2CC[C@@H](C)[C@@](O)(O2)C(=O)C(=O)N2CCCC[C@H]2C(=O)O[C@H]([C@H](C)C[C@@H]2CC[C@@H](OCCO)[C@H](OC)C2)CC(=O)[C@H](C)/C=C(\C)[C@@H](O)[C@@H](OC)C(=O)[C@H](C)C[C@H](C)/C=C/C=C/C=C/1C [everolimus, dihydroxy-12-[(2R)-1-[(1S,3R,4R)-4-(2-hydroxyethoxy)-3-methoxycyclohexyl]propan-2-yl]-19,30-dimethoxy-15,17,21,23,29,35-hexamethyl-11,36-dioxa-4-azatricyclo[30.3.1.0]hexatriaconta-16,24,26,28-tetraene-2,3,10,14,20-pentone]
CI50 growth inhibition (NCI-H929): S (S=0.01 to <0.5)
CI50 inhibition (NCI-H929): T (T=0.5 to <0.7)
Synergy Score growth inhibition (NCI-H929): A3 (A3=>3)
Synergy Score inhibition (NCI-H929): A2 (A2=1 to <3)
CI50 growth inhibition (RPMI-8226): U (U=0.7 to <1)
CI50 inhibition (RPMI-8226): W (W=≥1)
Synergy Score growth inhibition (RPMI-8226): A2 (A2=1 to <3)
Synergy Score inhibition (RPMI-8226): A1 (A1=0.0001 to <1)
CI50 growth inhibition (HH): S (S=0.01 to <0.5)
CI50 inhibition (HH): S (S=0.01 to <0.5)
Synergy Score growth inhibition (HH): A3 (A3=>3)
Synergy Score inhibition (HH): A2 (A2=1 to <3)
CI50 growth inhibition (GRANTA-519): S (S=0.01 to <0.5)
Synergy Score growth inhibition (GRANTA-519): A2 (A2=1 to <3)
Synergy Score inhibition (GRANTA-519): A1 (A1=0.0001 to <1)
CI50 growth inhibition (DOHH-2): S (S=0.01 to <0.5)
CI50 inhibition (DOHH-2): S (S=0.01 to <0.5)
Synergy Score growth inhibition (DOHH-2): A3 (A3=>3)
Synergy Score inhibition (DOHH-2): A3 (A3=>3)
CI50 growth inhibition (Jeko-1): T (T=0.5 to <0.7)
CI50 inhibition (Jeko-1): U (U=0.7 to <1)
Synergy Score growth inhibition (Jeko-1): A2 (A2=1 to <3)
Synergy Score inhibition (Jeko-1): A2 (A2=1 to <3)
CI50 inhibition (OMP-2): W (W=≥1)
Synergy Score growth inhibition (OMP-2): A2 (A2=1 to <3)
Synergy Score inhibition (OMP-2): A2 (A2=1 to <3)
CI50 growth inhibition [1]: S (S=0.01 to <0.5)
CI50 growth inhibition (OCI-Ly7): S (S=0.01 to <0.5)
CI50 inhibition (OCI-Ly7): W (W=≥1)
Synergy Score growth inhibition (OCI-Ly7): A2 (A2=1 to <3)
Synergy Score inhibition (OCI-Ly7): A2 (A2=1 to <3)
CI50 growth inhibition (WSU-NHL): T (T=0.5 to <0.7)
CI50 inhibition (WSU-NHL): S (S=0.01 to <0.5)
Synergy Score growth inhibition (WSU-NHL): A3 (A3=>3)
Synergy Score inhibition (WSU-NHL): A3 (A3=>3)
CI50 growth inhibition (HBL-1): T (T=0.5 to <0.7)
CI50 inhibition (HBL-1): U (U=0.7 to <1)
Synergy Score growth inhibition (HBL-1): A2 (A2=1 to <3)
Synergy Score inhibition (HBL-1): A1 (A1=0.0001 to <1)
CI50 growth inhibition (Mino): T (T=0.5 to <0.7)
CI50 inhibition (Mino): U (U=0.7 to <1)
Synergy Score growth inhibition (Mino): A2 (A2=1 to <3)
Synergy Score inhibition (Mino): A2 (A2=1 to <3)
CI50 growth inhibition (KARPAS-422): W (W=≥1)
CI50 inhibition (KARPAS-422): S (S=0.01 to <0.5)
Synergy Score growth inhibition (KARPAS-422): A2 (A2=1 to <3)
Synergy Score inhibition (KARPAS-422): A2 (A2=1 to <3)
CI50 growth inhibition (OCI-Ly3): U (U=0.7 to <1)
Synergy Score growth inhibition (OCI-Ly3): A2 (A2=1 to <3)
Synergy Score inhibition (OCI-Ly3): A1 (A1=0.0001 to <1)
CI50 growth inhibition (TMD8; TMD8, 72 h): T (T=0.5 to <0.7)
CI50 inhibition (TMD8; TMD8, 72 h): S (S=0.01 to <0.5)
Synergy Score growth inhibition (TMD8; TMD8, 72 h): A3 (A3=>3)
Synergy Score inhibition (TMD8; TMD8, 72 h): A3 (A3=>3)
effect of the combination (isobologram) (TMD8; TMD8 DLBCL cell line, FIG. 1-3): synergistic effect
CI50 growth inhibition (U-2932): S (S=0.01 to <0.5)
Synergy Score growth inhibition (U-2932): A2 (A2=1 to <3)
Synergy Score inhibition (U-2932): A2 (A2=1 to <3)
effect of the combination (isobologram) (Farage; Farage DLBCL cell line, FIG. 4-5): synergistic effect
CI50 growth inhibition (Farage; Farage, 72 h): T (T=0.5 to <0.7)
CI50 inhibition (Farage; Farage, 72 h): S (S=0.01 to <0.5)
Synergy Score growth inhibition (Farage; Farage, 72 h): A3 (A3=>3)
Synergy Score inhibition (Farage; Farage, 72 h): A3 (A3=>3)
CI50 growth inhibition (KARPAS-299): U (U=0.7 to <1)
CI50 inhibition (KARPAS-299): W (W=≥1)
Synergy Score growth inhibition (KARPAS-299): A1 (A1=0.0001 to <1)
Synergy Score inhibition (KARPAS-299): A1 (A1=0.0001 to <1)
CI50 growth inhibition (SU-DHL-10-epst): S (S=0.01 to <0.5)
CI50 inhibition (SU-DHL-10-epst): S (S=0.01 to <0.5)
Synergy Score growth inhibition (SU-DHL-10-epst): A3 (A3=>3)
Synergy Score inhibition (SU-DHL-10-epst): A3 (A3=>3)
CI50 growth inhibition (SU-DHL-4-epst): S (S=0.01 to <0.5)
CI50 inhibition (SU-DHL-4-epst): S (S=0.01 to <0.5)
Synergy Score growth inhibition (SU-DHL-4-epst): A3 (A3=>3)
Synergy Score inhibition (SU-DHL-4-epst): A3 (A3=>3)
CI50 growth inhibition (RL): T (T=0.5 to <0.7)
CI50 inhibition (RL): S (S=0.01 to <0.5)
Synergy Score growth inhibition (RL): A2 (A2=1 to <3)
Synergy Score inhibition (RL): A2 (A2=1 to <3)
